Source: a compilation of properties of binary mixtures (doi:10.1021/acs.jced.2c00096)

Assay: xn = mol fraction of the nth substance listed
Conditions: 100 kPa

Compound: CCCC[N+]1(C)CCCC1.O=S(=O)([O-])C(F)(F)F + O
- electrical conductivity (288.15 K, x2 = 0.1203): 0.173 S/m
- viscosity (288.15 K, x2 = 0.1203): 196 mPa·s
- electrical conductivity (288.15 K, x2 = 0.1956): 0.21 S/m
- viscosity (288.15 K, x2 = 0.1956): 151.5 mPa·s
- electrical conductivity (288.15 K, x2 = 0.4836): 0.458 S/m
- viscosity (288.15 K, x2 = 0.4836): 56.8 mPa·s
- electrical conductivity (288.15 K, x2 = 0.5819): 0.603 S/m
- viscosity (288.15 K, x2 = 0.5819): 40.25 mPa·s
- electrical conductivity (288.15 K, x2 = 0.6794): 0.78 S/m
- viscosity (288.15 K, x2 = 0.6794): 27.75 mPa·s
- electrical conductivity (288.15 K, x2 = 0.8612): 1.43 S/m
- viscosity (288.15 K, x2 = 0.8612): 10.36 mPa·s
- electrical conductivity (288.15 K, x2 = 0.95): 1.75 S/m
- viscosity (288.15 K, x2 = 0.95): 3.99 mPa·s
- electrical conductivity (293.15 K, x2 = 0.0597): 0.188 S/m
- viscosity (293.15 K, x2 = 0.0597): 181.1 mPa·s
- electrical conductivity (293.15 K, x2 = 0.1203): 0.22 S/m
- viscosity (293.15 K, x2 = 0.1203): 148.6 mPa·s
- electrical conductivity (293.15 K, x2 = 0.1956): 0.266 S/m
- viscosity (293.15 K, x2 = 0.1956): 116.3 mPa·s
- electrical conductivity (293.15 K, x2 = 0.3766): 0.426 S/m
- viscosity (293.15 K, x2 = 0.3766): 64.1 mPa·s
- electrical conductivity (293.15 K, x2 = 0.4836): 0.563 S/m
- viscosity (293.15 K, x2 = 0.4836): 45 mPa·s
- electrical conductivity (293.15 K, x2 = 0.5819): 0.732 S/m
- viscosity (293.15 K, x2 = 0.5819): 32.19 mPa·s
- electrical conductivity (293.15 K, x2 = 0.6794): 0.954 S/m
- viscosity (293.15 K, x2 = 0.6794): 22.37 mPa·s
- electrical conductivity (293.15 K, x2 = 0.7673): 1.26 S/m
- viscosity (293.15 K, x2 = 0.7673): 15.18 mPa·s
- electrical conductivity (293.15 K, x2 = 0.95): 2.07 S/m
- viscosity (293.15 K, x2 = 0.95): 3.36 mPa·s
- electrical conductivity (298.15 K, x2 = 0.1203): 0.276 S/m
- viscosity (298.15 K, x2 = 0.1203): 114.9 mPa·s
- electrical conductivity (298.15 K, x2 = 0.1956): 0.334 S/m
- viscosity (298.15 K, x2 = 0.1956): 91 mPa·s
- electrical conductivity (298.15 K, x2 = 0.3197): 0.453 S/m
- viscosity (298.15 K, x2 = 0.3197): 61.1 mPa·s
- electrical conductivity (298.15 K, x2 = 0.4836): 0.68 S/m
- viscosity (298.15 K, x2 = 0.4836): 36.38 mPa·s
- electrical conductivity (298.15 K, x2 = 0.5819): 0.886 S/m
- viscosity (298.15 K, x2 = 0.5819): 26.17 mPa·s
- electrical conductivity (298.15 K, x2 = 0.8612): 2.04 S/m
- viscosity (298.15 K, x2 = 0.8612): 7.14 mPa·s
- electrical conductivity (303.15 K, x2 = 0.0597): 0.299 S/m
- viscosity (303.15 K, x2 = 0.0597): 108.4 mPa·s
- electrical conductivity (303.15 K, x2 = 0.1203): 0.343 S/m
- viscosity (303.15 K, x2 = 0.1203): 90.6 mPa·s
- electrical conductivity (303.15 K, x2 = 0.1956): 0.406 S/m
- viscosity (303.15 K, x2 = 0.1956): 72.5 mPa·s
- electrical conductivity (303.15 K, x2 = 0.3197): 0.545 S/m
- viscosity (303.15 K, x2 = 0.3197): 49.4 mPa·s
- electrical conductivity (303.15 K, x2 = 0.4836): 0.808 S/m
- viscosity (303.15 K, x2 = 0.4836): 29.8 mPa·s
- electrical conductivity (303.15 K, x2 = 0.5819): 1.04 S/m
- viscosity (303.15 K, x2 = 0.5819): 21.59 mPa·s
- electrical conductivity (303.15 K, x2 = 0.6794): 1.37 S/m
- viscosity (303.15 K, x2 = 0.6794): 15.22 mPa·s
- electrical conductivity (303.15 K, x2 = 0.7673): 1.79 S/m
- viscosity (303.15 K, x2 = 0.7673): 10.5 mPa·s
- electrical conductivity (303.15 K, x2 = 0.8612): 2.38 S/m
- viscosity (303.15 K, x2 = 0.8612): 6.05 mPa·s
- electrical conductivity (308.15 K, x2 = 0.0597): 0.364 S/m
- viscosity (308.15 K, x2 = 0.0597): 86.1 mPa·s
- electrical conductivity (308.15 K, x2 = 0.1956): 0.488 S/m
- viscosity (308.15 K, x2 = 0.1956): 58.6 mPa·s
- electrical conductivity (308.15 K, x2 = 0.3197): 0.647 S/m
- viscosity (308.15 K, x2 = 0.3197): 40.48 mPa·s
- electrical conductivity (308.15 K, x2 = 0.4836): 0.953 S/m
- viscosity (308.15 K, x2 = 0.4836): 24.76 mPa·s
- electrical conductivity (308.15 K, x2 = 0.5819): 1.23 S/m
- viscosity (308.15 K, x2 = 0.5819): 18.04 mPa·s
- electrical conductivity (308.15 K, x2 = 0.6794): 1.6 S/m
- viscosity (308.15 K, x2 = 0.6794): 12.8 mPa·s
- electrical conductivity (308.15 K, x2 = 0.7673): 2.08 S/m
- viscosity (308.15 K, x2 = 0.7673): 8.89 mPa·s
- electrical conductivity (308.15 K, x2 = 0.8612): 2.77 S/m
- viscosity (308.15 K, x2 = 0.8612): 5.14 mPa·s
- electrical conductivity (308.15 K, x2 = 0.95): 3.16 S/m
- viscosity (308.15 K, x2 = 0.95): 2.17 mPa·s
- electrical conductivity (313.15 K, x2 = 0.0597): 0.435 S/m
- viscosity (313.15 K, x2 = 0.0597): 69.4 mPa·s
- electrical conductivity (313.15 K, x2 = 0.1203): 0.497 S/m
- viscosity (313.15 K, x2 = 0.1203): 58.9 mPa·s
- electrical conductivity (313.15 K, x2 = 0.3197): 0.76 S/m
- viscosity (313.15 K, x2 = 0.3197): 33.61 mPa·s
- electrical conductivity (313.15 K, x2 = 0.3766): 0.866 S/m
- viscosity (313.15 K, x2 = 0.3766): 28.63 mPa·s
- electrical conductivity (313.15 K, x2 = 0.4836): 1.11 S/m
- viscosity (313.15 K, x2 = 0.4836): 20.81 mPa·s
- electrical conductivity (313.15 K, x2 = 0.6794): 1.86 S/m
- viscosity (313.15 K, x2 = 0.6794): 10.89 mPa·s
- electrical conductivity (313.15 K, x2 = 0.7673): 2.4 S/m
- viscosity (313.15 K, x2 = 0.7673): 7.6 mPa·s
- electrical conductivity (313.15 K, x2 = 0.8612): 3.17 S/m
- viscosity (313.15 K, x2 = 0.8612): 4.47 mPa·s
- electrical conductivity (313.15 K, x2 = 0.95): 3.56 S/m
- viscosity (313.15 K, x2 = 0.95): 1.91 mPa·s
- electrical conductivity (318.15 K, x2 = 0.0597): 0.52 S/m
- viscosity (318.15 K, x2 = 0.0597): 56.7 mPa·s
- electrical conductivity (318.15 K, x2 = 0.1956): 0.68 S/m
- viscosity (318.15 K, x2 = 0.1956): 39.82 mPa·s
- electrical conductivity (318.15 K, x2 = 0.3766): 1.01 S/m
- viscosity (318.15 K, x2 = 0.3766): 24.15 mPa·s
- electrical conductivity (318.15 K, x2 = 0.4836): 1.28 S/m
- viscosity (318.15 K, x2 = 0.4836): 17.69 mPa·s
- electrical conductivity (318.15 K, x2 = 0.5819): 1.63 S/m
- viscosity (318.15 K, x2 = 0.5819): 13.03 mPa·s
- electrical conductivity (318.15 K, x2 = 0.6794): 2.14 S/m
- viscosity (318.15 K, x2 = 0.6794): 9.36 mPa·s
- electrical conductivity (318.15 K, x2 = 0.7673): 2.75 S/m
- viscosity (318.15 K, x2 = 0.7673): 6.57 mPa·s
- electrical conductivity (318.15 K, x2 = 0.8612): 3.61 S/m
- viscosity (318.15 K, x2 = 0.8612): 3.9 mPa·s
- electrical conductivity (318.15 K, x2 = 0.95): 4 S/m
- viscosity (318.15 K, x2 = 0.95): 1.7 mPa·s
- electrical conductivity (323.15 K, x2 = 0.1203): 0.686 S/m
- viscosity (323.15 K, x2 = 0.1203): 40.38 mPa·s
- electrical conductivity (323.15 K, x2 = 0.3197): 1.03 S/m
- viscosity (323.15 K, x2 = 0.3197): 23.95 mPa·s
- electrical conductivity (323.15 K, x2 = 0.3766): 1.16 S/m
- viscosity (323.15 K, x2 = 0.3766): 20.59 mPa·s
- electrical conductivity (323.15 K, x2 = 0.4836): 1.47 S/m
- viscosity (323.15 K, x2 = 0.4836): 15.18 mPa·s
- electrical conductivity (323.15 K, x2 = 0.7673): 3.11 S/m
- viscosity (323.15 K, x2 = 0.7673): 5.73 mPa·s
- electrical conductivity (323.15 K, x2 = 0.8612): 4.06 S/m
- viscosity (323.15 K, x2 = 0.8612): 3.43 mPa·s
- electrical conductivity (328.15 K, x2 = 0.0597): 0.713 S/m
- viscosity (328.15 K, x2 = 0.0597): 39.32 mPa·s
- electrical conductivity (328.15 K, x2 = 0.1203): 0.796 S/m
- viscosity (328.15 K, x2 = 0.1203): 34.03 mPa·s
- electrical conductivity (328.15 K, x2 = 0.1956): 0.921 S/m
- viscosity (328.15 K, x2 = 0.1956): 28.34 mPa·s
- electrical conductivity (328.15 K, x2 = 0.3197): 1.17 S/m
- viscosity (328.15 K, x2 = 0.3197): 20.52 mPa·s
- electrical conductivity (328.15 K, x2 = 0.4836): 1.67 S/m
- viscosity (328.15 K, x2 = 0.4836): 13.15 mPa·s
- electrical conductivity (328.15 K, x2 = 0.5819): 2.12 S/m
- viscosity (328.15 K, x2 = 0.5819): 9.79 mPa·s
- electrical conductivity (328.15 K, x2 = 0.6794): 2.76 S/m
- viscosity (328.15 K, x2 = 0.6794): 7.1 mPa·s
- electrical conductivity (328.15 K, x2 = 0.7673): 3.5 S/m
- viscosity (328.15 K, x2 = 0.7673): 5.04 mPa·s
- electrical conductivity (328.15 K, x2 = 0.8612): 4.55 S/m
- viscosity (328.15 K, x2 = 0.8612): 3.04 mPa·s
- electrical conductivity (328.15 K, x2 = 0.95): 4.93 S/m
- viscosity (328.15 K, x2 = 0.95): 1.37 mPa·s
- electrical conductivity (333.15 K, x2 = 0.0597): 0.83 S/m
- viscosity (333.15 K, x2 = 0.0597): 33.27 mPa·s
- electrical conductivity (333.15 K, x2 = 0.1203): 0.918 S/m
- viscosity (333.15 K, x2 = 0.1203): 28.94 mPa·s
- electrical conductivity (333.15 K, x2 = 0.1956): 1.05 S/m
- viscosity (333.15 K, x2 = 0.1956): 24.27 mPa·s
- electrical conductivity (333.15 K, x2 = 0.3197): 1.33 S/m
- viscosity (333.15 K, x2 = 0.3197): 17.75 mPa·s
- electrical conductivity (333.15 K, x2 = 0.3766): 1.48 S/m
- viscosity (333.15 K, x2 = 0.3766): 15.39 mPa·s
- electrical conductivity (333.15 K, x2 = 0.4836): 1.88 S/m
- viscosity (333.15 K, x2 = 0.4836): 11.49 mPa·s
- electrical conductivity (333.15 K, x2 = 0.6794): 3.09 S/m
- viscosity (333.15 K, x2 = 0.6794): 6.26 mPa·s
- electrical conductivity (333.15 K, x2 = 0.7673): 3.91 S/m
- viscosity (333.15 K, x2 = 0.7673): 4.46 mPa·s
- electrical conductivity (333.15 K, x2 = 0.8612): 5.05 S/m
- viscosity (333.15 K, x2 = 0.8612): 2.71 mPa·s
- electrical conductivity (333.15 K, x2 = 0.95): 5.42 S/m
- viscosity (333.15 K, x2 = 0.95): 1.24 mPa·s
